# Reference: patent US6541468B1, “Indolocarbazole derivatives useful for the treatment of neurodegenerative diseases and cancer” (Bayer Corporation, priority 1998, dated 2003)
row,melting point [°C],SMILES
1,> 200,"O=C1NC(=O)c2c1c1c3ccccc3n3c1c1c2c2ccccc2n1C1CC3[C@@H](O)[C@H]1O [Example 1, 9,12-Methano-1H-diindolo[1,2,3-fg:3′,2′,1′-kl]pyrrolo[3,4-][1,6]benzodiazocine-1,3 (2H)-dione,9,10,11,12-tetrahydro-10,11-dihydroxy-(9α,10α,11α,12α)]"
2,> 230,"O=C1NC(=O)c2c1c1c3ccccc3n3c1c1c2c2ccccc2n1C1CC3CC1=O (centres unmarked) [Example 3, 9,12-Methano-1H-diindolo[1,2,3-fg:3′,2′,1′-kl]pyrrolo[3,4-I][1,6]benzodiazocine-1,3,10 (2H,9H)-trone, 11,12-dihydro]"
